The results in this text go back to ChEMBL document CHEMBL3525899, “Identification of the cytochrome P450 and other enzymes involved in the in vitro oxidative metabolism of a novel antidepressant, Lu AA21004” (Drug Metab Dispos, 2012).

Data set [1] relates to Liver microsome. Description: Drug metabolism in pooled human liver microsomes assessed as formation of 1-(2-(2,4-dimethylphenylsulfinyl)phenyl)piperazine at 100 uM after 30 to 180 mins by HPLC/MS-MS analysis in presence of NADPH regenerating system with NADP+. It is filed as ADME. A general note: Liver microsomes are vesicles of endoplasmic reticulum, rich in cytochrome P450 enzymes.

Data set [2] has as its system Liver microsome. As to the kind of experiment: Drug metabolism in pooled human liver microsomes assessed as formation of (3-methyl-4-(2-(piperazin-1-yl)phenylthio)phenyl)methanol at 100 uM after 30 to 180 mins by HPLC/MS-MS analysis in presence of NADPH regenerating system with NADP+. Type of data set: ADME.
The target of data set [3] is T1, Cytochrome P450 2A6 (Homo sapiens, UniProt P11509).
T1 sequence (P11509 whole entry): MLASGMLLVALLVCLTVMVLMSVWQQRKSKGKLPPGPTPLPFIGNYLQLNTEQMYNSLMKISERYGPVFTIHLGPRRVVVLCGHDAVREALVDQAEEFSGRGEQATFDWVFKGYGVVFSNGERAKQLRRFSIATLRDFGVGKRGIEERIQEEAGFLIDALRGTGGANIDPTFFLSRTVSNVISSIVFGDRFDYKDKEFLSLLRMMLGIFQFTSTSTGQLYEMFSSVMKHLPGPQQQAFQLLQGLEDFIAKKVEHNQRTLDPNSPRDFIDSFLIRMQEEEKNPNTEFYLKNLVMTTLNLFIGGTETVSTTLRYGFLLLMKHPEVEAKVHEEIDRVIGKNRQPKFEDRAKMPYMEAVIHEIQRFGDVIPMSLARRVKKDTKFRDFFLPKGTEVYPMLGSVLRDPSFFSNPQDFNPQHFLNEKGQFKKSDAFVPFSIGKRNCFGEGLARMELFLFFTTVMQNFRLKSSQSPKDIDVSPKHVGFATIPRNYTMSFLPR
As to the kind of experiment: Activity of human recombinant CYP2A6 expressed in microsomes isolated from human AHH-1 cells assessed as enzyme-mediated 3-(2,4-dimethylphenylthio)-4-(piperazin-1-yl)phenol formation at 8 to 50 uM after 120 mins by HPLC/MS-MS analysis in presence of NADPH regenerating system with NADP+. It is filed as ADME, cell-free. As to conditions: 2 h.

Data set [4] deals with Liver microsome. Description: Drug metabolism in pooled human liver microsomes assessed as formation of 1-(2-(2,4-dimethylphenylsulfinyl)phenyl)piperazine per mg of protein after 30 mins by Michaelis-Menten plot analysis in presence of NADPH regenerating system with NADP+. It is filed as ADME. As to conditions: 0.5 h.
Data set [5] has as its target T2, Cytochrome P450 1A2 (Homo sapiens, UniProt P05177).
T2 sequence (P05177 whole entry): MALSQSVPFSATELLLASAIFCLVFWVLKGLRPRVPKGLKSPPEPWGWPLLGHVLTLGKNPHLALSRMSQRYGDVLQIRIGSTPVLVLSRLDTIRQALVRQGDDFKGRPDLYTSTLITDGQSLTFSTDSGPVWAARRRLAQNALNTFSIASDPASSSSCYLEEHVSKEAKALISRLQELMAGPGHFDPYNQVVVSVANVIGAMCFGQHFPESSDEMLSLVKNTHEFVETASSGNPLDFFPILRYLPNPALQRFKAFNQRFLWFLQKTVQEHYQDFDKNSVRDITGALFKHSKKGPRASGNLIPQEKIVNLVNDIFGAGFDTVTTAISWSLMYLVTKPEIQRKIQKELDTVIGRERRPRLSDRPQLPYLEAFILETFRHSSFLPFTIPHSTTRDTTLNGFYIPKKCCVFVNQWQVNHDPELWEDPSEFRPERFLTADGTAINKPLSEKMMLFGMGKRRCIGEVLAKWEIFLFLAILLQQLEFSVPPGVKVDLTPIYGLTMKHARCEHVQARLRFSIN
Description: Activity of human recombinant CYP1A2 expressed in microsomes isolated from human AHH-1 cells assessed as enzyme-mediated 3-(2,4-dimethylphenylthio)-4-(piperazin-1-yl)phenol formation at 8 to 50 uM after 120 mins by HPLC/MS-MS analysis in presence of NADPH regenerating system with NADP+. Type of data set: ADME, cell-free. As to conditions: 2 h.

Data set [6] addresses T3, Cytochrome P450 2C8 (Homo sapiens, UniProt P10632).
T3 sequence (P10632 whole entry): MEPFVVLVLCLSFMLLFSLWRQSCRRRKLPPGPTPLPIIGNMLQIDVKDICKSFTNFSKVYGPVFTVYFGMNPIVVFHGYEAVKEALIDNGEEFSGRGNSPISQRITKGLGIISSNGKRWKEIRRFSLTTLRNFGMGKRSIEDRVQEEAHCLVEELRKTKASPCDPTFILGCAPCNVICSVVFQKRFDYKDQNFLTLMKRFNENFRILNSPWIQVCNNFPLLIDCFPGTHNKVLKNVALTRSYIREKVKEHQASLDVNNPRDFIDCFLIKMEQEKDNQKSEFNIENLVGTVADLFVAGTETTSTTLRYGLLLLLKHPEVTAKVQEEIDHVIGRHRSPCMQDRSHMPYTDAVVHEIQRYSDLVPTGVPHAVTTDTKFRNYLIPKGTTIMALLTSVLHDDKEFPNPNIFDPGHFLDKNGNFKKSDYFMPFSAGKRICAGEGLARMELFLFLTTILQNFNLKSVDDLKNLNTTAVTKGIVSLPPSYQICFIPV
Description: Activity of human recombinant CYP2C8 expressed in microsomes isolated from human AHH-1 cells assessed as enzyme-mediated 1-(2-(2,4-dimethylphenylsulfinyl)phenyl)piperazine formation at 8 to 50 uM after 120 mins by HPLC/MS-MS analysis in presence of NADPH regenerating system with NADP+. It is filed as ADME, cell-free. As to conditions: 2 h.

Data set [7] relates to Liver microsome. As to the kind of experiment: Drug metabolism in pooled human liver microsomes assessed as formation of 4-(2-(2,4-dimethylphenylthio)phenyl)piperazin-1-ol at 100 uM after 30 to 180 mins by HPLC/MS-MS analysis in presence of NADPH regenerating system with NADP+. It is filed as ADME.
The subject of data set [8] is Liver microsome. Description: Drug metabolism in pooled human liver microsomes at 100 uM after 30 to 180 mins by HPLC/MS-MS analysis in absence of NADPH regenerating system with NADP+. Type of data set: ADME.
The target of data set [9] is T4, Cytochrome P450 2B6 (Homo sapiens, UniProt P20813).
T4 sequence (P20813 whole entry): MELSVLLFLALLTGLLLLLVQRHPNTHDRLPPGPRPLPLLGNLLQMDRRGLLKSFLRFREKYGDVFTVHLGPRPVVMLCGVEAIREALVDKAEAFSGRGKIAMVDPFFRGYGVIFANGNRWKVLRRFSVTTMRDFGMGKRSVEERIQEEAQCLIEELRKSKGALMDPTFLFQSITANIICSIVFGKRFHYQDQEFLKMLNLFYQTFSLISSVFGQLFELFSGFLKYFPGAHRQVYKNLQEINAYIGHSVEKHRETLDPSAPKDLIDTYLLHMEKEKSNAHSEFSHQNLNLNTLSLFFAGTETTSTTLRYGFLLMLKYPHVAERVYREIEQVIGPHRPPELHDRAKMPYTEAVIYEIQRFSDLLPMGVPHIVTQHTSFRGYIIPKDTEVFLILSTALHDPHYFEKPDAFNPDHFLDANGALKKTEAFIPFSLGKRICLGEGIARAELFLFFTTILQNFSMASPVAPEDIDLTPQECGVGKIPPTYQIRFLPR
As to the kind of experiment: Activity of human recombinant CYP2B6 expressed in microsomes isolated from human AHH-1 cells assessed as enzyme-mediated 3-(2,4-dimethylphenylthio)-4-(piperazin-1-yl)phenol formation at 8 to 50 uM after 120 mins by HPLC/MS-MS analysis in presence of NADPH regenerating system with NADP+. Type of data set: ADME, cell-free. The conditions noted are these: 2 h.

Regarding `Br.Cc1ccc(Sc2ccccc2N2CCNCC2)c(C)c1` [VORTIOXETINE HYDROBROMIDE], the Drug metabolism entry in data set [1] is recorded as “metabolite_detected”; in [2], “metabolite_detected”; in data set [3], “metabolite_not_detected”; in data set [5], “metabolite_not_detected”; in data set [6], “metabolite_detected”; in data set [7], “metabolite_detected”. For the same compound, the Drug metabolism result in [8] and in data set [9] was “metabolite_not_detected” in each case. Also, in [4], the “Vmax(app)” value was “>= 227 pmol/min”.
